Results as given in the supplement of paper PMC6045584.
± gives the standard deviation of the averaged measurements.

What was measured:
[1] = compound: COc1cccc2c1C(=O)c1c(O)c3c(c(O)c1C2=O)C[C@@](O)(C(=O)CO)C[C@@H]3O[C@H]1C[C@H](N)[C@H](O)[C@H](C)O1 [DOXORUBICIN]; assay: surviving fraction relative to DMSO-only wells; higher = less growth inhibition; conditions: exposure time: 5 days
Summary of the method: (§1)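 Surviving fraction is CellTiter-Glo luminescence divided by the median of wells given DMSO only. For this, log-phase tumour cell lines went into 384-well plates at 250–500 cells per well and, 24 hours later, into five days of continuous inhibitor exposure at 0.5, 1, 5, 10, 50, 100, 500 and 1000 nM. Lines were screened three times and retained only if replicate Pearson r >0.7 and median Z' >0.3.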

[2] = compound: CS(=O)(=O)c1ccc(C(=O)Nc2ccc(Cl)c(-c3ccccn3)c2)c(Cl)c1 [VISMODEGIB]; assay: as above; conditions: exposure time: 5 days
Summary of the method: as §1

Test System	surviving fraction ([1]; 0.5 nM)	surviving fraction ([1]; 1 nM)	surviving fraction ([1]; 5 nM)	surviving fraction ([1]; 10 nM)	surviving fraction ([1]; 50 nM)	surviving fraction ([1]; 100 nM)	surviving fraction ([1]; 500 nM)	surviving fraction ([1]; 1000 nM)	surviving fraction ([2]; 0.5 nM)	surviving fraction ([2]; 1 nM)	surviving fraction ([2]; 5 nM)	surviving fraction ([2]; 10 nM)	surviving fraction ([2]; 50 nM)	surviving fraction ([2]; 100 nM)	surviving fraction ([2]; 500 nM)	surviving fraction ([2]; 1000 nM)
22RV1 PROSTATE	1.02 ± 0.018	0.917 ± 0.047	0.618 ± 0.055	0.416 ± 0.047	0.222 ± 0.03	0.119 ± 0.026	0.024 ± 0.001	0.0357 ± 0.0025	1.01 ± 0.061	1.04 ± 0.029	0.962 ± 0.013	0.974 ± 0.0072	0.924 ± 0.037	1.102 ± 0.0057	1.04 ± 0.022	1.09 ± 0.068
93VU HEADNECK	1.03 ± 0.063	1.08 ± 0.11	1.12 ± 0.085	1.09 ± 0.06	0.697 ± 0.049	0.525 ± 0.046	0.249 ± 0.034	0.109 ± 0.016	0.962 ± 0.03	1.08 ± 0.057	1.06 ± 0.03	1.02 ± 0.14	0.868 ± 0.025	0.964 ± 0.093	0.849 ± 0.061	0.915 ± 0.04
143B BONE	1 ± 0.018	1.02 ± 0.0085	0.957 ± 0.0099	0.827 ± 0.013	0.417 ± 0.027	0.2785 ± 0.00071	0.0605 ± 0.0035	1.008 ± 0.0092	0.945 ± 0.063	0.98 ± 0.047	0.932 ± 0.1	0.993 ± 0.069	0.966 ± 0.042	0.965 ± 0.013	1.01 ± 0.046	1.01 ± 0.057
A549 LUNG	0.96 ± 0.032	0.964 ± 0.039	0.963 ± 0.046	1.01 ± 0.032	0.565 ± 0.031	0.496 ± 0.017	0.189 ± 0.015	0.083 ± 0.001	0.979 ± 0.018	0.9893 ± 0.0035	1.01 ± 0.033	1.02 ± 0.045	0.994 ± 0.017	1.06 ± 0.035	1.01 ± 0.032	1.03 ± 0.069
ASKA SYNOVIAL	0.792 ± 0.014	0.5807 ± 0.0031	0.28 ± 0.0042	0.292 ± 0.007	0.204 ± 0.016	0.166 ± 0.0025	0.16 ± 0.0079	0.224 ± 0.0035	1.04 ± 0.03	1.07 ± 0.046	1.08 ± 0.086	1.11 ± 0.039	0.939 ± 0.03	0.964 ± 0.05	0.926 ± 0.048	0.951 ± 0.055
BT20 BREAST	1.1 ± 0.033	1.02 ± 0.11	0.823 ± 0.034	0.469 ± 0.07	0.187 ± 0.019	0.191 ± 0.025	0.042 ± 0.01	0.037 ± 0.0056	1.08 ± 0.13	0.977 ± 0.039	1.01 ± 0.062	1.02 ± 0.048	0.964 ± 0.086	0.901 ± 0.058	0.898 ± 0.032	0.907 ± 0.11
BT549 BREAST	1.07 ± 0.1	1.03 ± 0.23	0.896 ± 0.087	0.378 ± 0.095	0.229 ± 0.022	0.0903 ± 0.019	0.0257 ± 0.0057	0.0267 ± 0.0015	1.02 ± 0.047	1.01 ± 0.12	1.09 ± 0.15	1.09 ± 0.15	0.76 ± 0.23	0.799 ± 0.19	0.744 ± 0.071	0.75 ± 0.018
C33A CERVIX	0.842 ± 0.066	0.988 ± 0.068	0.779 ± 0.055	0.604 ± 0.045	0.122 ± 0.013	0.085 ± 0.0096	0.0347 ± 0.0086	0.04 ± 0.0079	0.872 ± 0.066	1.007 ± 0.0076	1.12 ± 0.087	0.985 ± 0.061	0.879 ± 0.066	1 ± 0.069	0.851 ± 0.055	0.953 ± 0.066
CADOES1 SOFT TISSUE	0.93 ± 0.061	0.795 ± 0.037	0.926 ± 0.078	0.812 ± 0.12	0.573 ± 0.052	0.323 ± 0.035	0.093 ± 0.0087	0.0643 ± 0.011	0.884 ± 0.024	0.935 ± 0.085	0.968 ± 0.1	0.914 ± 0.056	0.952 ± 0.047	1.05 ± 0.091	0.979 ± 0.056	0.964 ± 0.073
CAL51 BREAST	0.903 ± 0.044	0.919 ± 0.026	0.872 ± 0.029	0.62 ± 0.055	0.112 ± 0.011	0.0608 ± 0.0036	0.0247 ± 0.00076	0.0238 ± 0.0015	0.895 ± 0.042	0.923 ± 0.013	0.9295 ± 0.0062	0.931 ± 0.043	0.931 ± 0.056	0.975 ± 0.071	0.9558 ± 0.009	0.963 ± 0.01
CAL72 BONE	1.05 ± 0.041	0.743 ± 0.018	1.01 ± 0.033	0.826 ± 0.045	0.298 ± 0.042	0.299 ± 0.018	0.0937 ± 0.0021	0.114 ± 0.0055	0.994 ± 0.016	1.01 ± 0.017	1.021 ± 0.0075	0.9987 ± 0.0091	0.919 ± 0.042	0.934 ± 0.025	0.922 ± 0.033	0.938 ± 0.037
CAL120 BREAST	0.955 ± 0.015	0.916 ± 0.019	0.902 ± 0.024	0.822 ± 0.065	0.401 ± 0.038	0.285 ± 0.019	0.0702 ± 0.0011	0.0468 ± 0.0028	0.987 ± 0.019	0.968 ± 0.018	0.999 ± 0.012	1 ± 0.012	0.997 ± 0.021	1.01 ± 0.013	0.942 ± 0.013	0.989 ± 0.016
CASKI CERVIX	0.684 ± 0.14	0.85 ± 0.04	0.221 ± 0.044	0.292 ± 0.049	0.035 ± 0.005	0.143 ± 0.032	0.0187 ± 0.0021	0.0253 ± 0.0015	0.939 ± 0.035	0.979 ± 0.026	0.958 ± 0.026	0.973 ± 0.046	0.828 ± 0.049	0.893 ± 0.058	0.876 ± 0.075	0.898 ± 0.084
CHLA90 AUTONOMIC GANGLIA	1 ± 0.024	0.982 ± 0.024	0.866 ± 0.053	0.763 ± 0.041	0.414 ± 0.038	0.187 ± 0.026	0.054 ± 0.0035	0.0323 ± 0.0021	0.923 ± 0.084	0.949 ± 0.06	0.962 ± 0.056	1.01 ± 0.062	0.914 ± 0.079	0.925 ± 0.013	0.92 ± 0.028	0.953 ± 0.041
CME SYNOVIAL	1.14 ± 0.094	0.998 ± 0.15	0.567 ± 0.12	0.328 ± 0.037	0.237 ± 0.023	0.215 ± 0.016	0.203 ± 0.013	0.284 ± 0.036	1.24 ± 0.088	1.2 ± 0.12	1.2 ± 0.27	1.3 ± 0.16	1.07 ± 0.098	1.12 ± 0.13	1.03 ± 0.17	0.9627 ± 0.0064
COLO320DM LARGE INTESTINE	1.07 ± 0.064	1.13 ± 0.02	1.13 ± 0.12	1.09 ± 0.035	1.05 ± 0.091	0.787 ± 0.14	0.446 ± 0.014	0.388 ± 0.02	1.02 ± 0.063	1.03 ± 0.12	1.14 ± 0.081	1.06 ± 0.069	1.05 ± 0.094	1.02 ± 0.087	1.04 ± 0.092	0.977 ± 0.095
